In ChEMBL document CHEMBL5233239, “Matrix metalloproteinase-9 (MMP-9) and its inhibitors in cancer: A minireview” (Eur J Med Chem, 2020) one finds IC50 and Cmax data, which are given here for ten compounds.

The target in data set [1] is T1, Matrix metalloproteinase-9 (Homo sapiens, UniProt P14780). The data set is described as follows: Inhibition of MMP-9 (unknown origin) using Ac-PLG-[2-mercapto-4-methylpentanoyl]-LG-OC2H5) as substrate measured upto 20 mins by microplate reader analysis.
The target of data set [2] is T2, 72 kDa type IV collagenase (Homo sapiens, UniProt P08253). In words: Inhibition of MMP-2 (unknown origin) using Ac-PLG-[2-mercapto-4-methylpentanoyl]-LG-OC2H5) as substrate measured upto 20 mins by microplate reader analysis.
T2 sequence (P08253 whole entry): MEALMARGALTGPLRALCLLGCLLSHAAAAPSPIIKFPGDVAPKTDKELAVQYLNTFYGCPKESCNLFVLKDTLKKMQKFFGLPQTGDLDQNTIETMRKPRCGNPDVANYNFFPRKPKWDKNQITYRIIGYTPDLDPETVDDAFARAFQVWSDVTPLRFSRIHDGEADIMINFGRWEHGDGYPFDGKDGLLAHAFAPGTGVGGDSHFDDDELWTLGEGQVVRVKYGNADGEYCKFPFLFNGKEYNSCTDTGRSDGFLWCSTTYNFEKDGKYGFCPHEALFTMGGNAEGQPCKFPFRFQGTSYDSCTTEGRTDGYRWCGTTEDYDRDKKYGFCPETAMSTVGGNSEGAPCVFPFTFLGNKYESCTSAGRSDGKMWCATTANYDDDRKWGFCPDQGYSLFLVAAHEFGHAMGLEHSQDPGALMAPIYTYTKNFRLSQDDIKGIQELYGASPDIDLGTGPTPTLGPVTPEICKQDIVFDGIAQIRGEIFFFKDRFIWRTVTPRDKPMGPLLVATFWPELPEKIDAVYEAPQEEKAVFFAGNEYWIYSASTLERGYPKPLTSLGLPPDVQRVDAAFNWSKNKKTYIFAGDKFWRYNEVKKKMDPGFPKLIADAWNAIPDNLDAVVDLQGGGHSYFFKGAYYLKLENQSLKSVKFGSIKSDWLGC
In data set [3] the target is T1, Matrix metalloproteinase-9. In words: Inhibition of MMP-9 (unknown origin).
Data set [4] concerns the target T3, Collagenase 3 (Homo sapiens, UniProt P45452).
Description: Inhibition of MMP-13 (unknown origin)
Data set [5] addresses Disintegrin and metalloproteinase domain-containing protein 17 (Homo sapiens, UniProt P78536). In words: Inhibition of TACE (unknown origin).
The target in data set [6] is T4, Interstitial collagenase (Homo sapiens, UniProt P03956).
T4 sequence (P03956 whole entry): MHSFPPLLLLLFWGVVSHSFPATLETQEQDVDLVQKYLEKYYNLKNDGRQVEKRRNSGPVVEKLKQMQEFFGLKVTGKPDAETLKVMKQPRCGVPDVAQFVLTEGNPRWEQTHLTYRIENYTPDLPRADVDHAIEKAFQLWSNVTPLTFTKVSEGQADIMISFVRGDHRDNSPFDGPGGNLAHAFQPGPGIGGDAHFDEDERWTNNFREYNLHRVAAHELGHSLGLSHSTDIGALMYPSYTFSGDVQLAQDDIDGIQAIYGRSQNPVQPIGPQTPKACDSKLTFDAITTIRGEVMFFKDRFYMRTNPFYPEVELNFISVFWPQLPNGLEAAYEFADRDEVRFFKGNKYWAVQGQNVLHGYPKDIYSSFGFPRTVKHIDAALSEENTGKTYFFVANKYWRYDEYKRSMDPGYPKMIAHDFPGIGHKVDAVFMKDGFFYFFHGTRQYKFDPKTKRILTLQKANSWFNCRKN
The data set is described as follows: Inhibition of MMP-1 (unknown origin).

For the next data set, the target named is T5, Matrilysin (Homo sapiens, UniProt P09237).
T5 sequence (P09237 whole entry): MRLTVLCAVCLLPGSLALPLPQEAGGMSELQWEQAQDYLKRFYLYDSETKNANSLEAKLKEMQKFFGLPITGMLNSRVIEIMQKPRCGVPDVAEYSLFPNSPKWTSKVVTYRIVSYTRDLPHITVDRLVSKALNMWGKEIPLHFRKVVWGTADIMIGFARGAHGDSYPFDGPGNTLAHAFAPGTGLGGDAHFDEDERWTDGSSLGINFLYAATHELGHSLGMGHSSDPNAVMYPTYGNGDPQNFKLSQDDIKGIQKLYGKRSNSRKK
The data set is described as follows: Inhibition of MMP-7 (unknown origin).

In another data set the target is Neutrophil collagenase (Homo sapiens, UniProt P22894). In words: Inhibition of MMP-8 (unknown origin).
Sequence of Neutrophil collagenase (P22894 whole entry): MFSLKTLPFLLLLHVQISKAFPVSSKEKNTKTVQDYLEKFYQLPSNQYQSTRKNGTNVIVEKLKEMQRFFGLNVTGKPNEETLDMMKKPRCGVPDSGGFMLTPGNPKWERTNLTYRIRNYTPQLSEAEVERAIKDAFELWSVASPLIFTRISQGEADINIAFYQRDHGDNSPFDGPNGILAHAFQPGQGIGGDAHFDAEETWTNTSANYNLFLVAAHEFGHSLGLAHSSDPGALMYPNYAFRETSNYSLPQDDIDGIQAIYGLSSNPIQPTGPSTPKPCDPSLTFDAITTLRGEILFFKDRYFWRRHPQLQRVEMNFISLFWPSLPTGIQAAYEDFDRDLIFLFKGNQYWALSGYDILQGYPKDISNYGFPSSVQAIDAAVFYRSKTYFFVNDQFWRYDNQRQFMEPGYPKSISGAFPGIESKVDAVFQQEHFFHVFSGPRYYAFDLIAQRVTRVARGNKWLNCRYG
Data set [7] addresses T1, Matrix metalloproteinase-9. The data set is described as follows: Inhibition of human MMP-9.
Data set [8] addresses T2, 72 kDa type IV collagenase. The data set is described as follows: Inhibition of human MMP-2.
The target in data set [9] is T2, 72 kDa type IV collagenase.
Data set [10] addresses T2, 72 kDa type IV collagenase. The data set is described as follows: Inhibition of human MMP2 using Dnp-Pro-Cha-Gly-Cys(ME)-His-Ala-Lys(Nma)-NH2 as substrate preincubated for 0.5 hrs followed by substrate addition and measured after 6 hrs by fluorimeter analysis.
The target in data set [11] is T3, Collagenase 3. In words: Inhibition of human MMP13 using Dnp-Pro-Cha-Gly-Cys(ME)-His-Ala-Lys(Nma)-NH2 as substrate preincubated for 0.5 hrs followed by substrate addition and measured after 6 hrs by fluorimeter analysis.
The target in a further data set is Stromelysin-1 (Homo sapiens, UniProt P08254). In words: Inhibition of human MMP3 using (7-methoxycoumarine-4-yl)-Arg-Pro-Lys-Pro-Tyr-Ala-Nva-Trp-Met-Lys(Dnp)-NH2 as substrate preincubated for 0.5 hrs followed by substrate addition and measured after 6 hrs by fluorimeter analysis.
Sequence of Stromelysin-1 (P08254 whole entry): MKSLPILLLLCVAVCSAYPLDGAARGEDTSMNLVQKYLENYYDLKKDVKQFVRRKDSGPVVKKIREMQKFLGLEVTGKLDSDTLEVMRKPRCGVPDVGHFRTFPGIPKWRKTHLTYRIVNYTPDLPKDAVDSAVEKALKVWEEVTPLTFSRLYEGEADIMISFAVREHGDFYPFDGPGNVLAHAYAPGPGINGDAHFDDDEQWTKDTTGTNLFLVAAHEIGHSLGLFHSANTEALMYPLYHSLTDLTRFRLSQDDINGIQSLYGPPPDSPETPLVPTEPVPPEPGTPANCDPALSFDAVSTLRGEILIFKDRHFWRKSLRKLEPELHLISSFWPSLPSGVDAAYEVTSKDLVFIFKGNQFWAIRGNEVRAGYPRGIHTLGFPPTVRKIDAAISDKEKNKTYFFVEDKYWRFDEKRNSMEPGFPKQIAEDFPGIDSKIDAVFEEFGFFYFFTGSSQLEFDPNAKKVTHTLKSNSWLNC
The target of data set [12] is T1, Matrix metalloproteinase-9. In words: Inhibition of human MMP9 using Dnp-Pro-Cha-Gly-Cys(ME)-His-Ala-Lys(Nma)-NH2 as substrate preincubated for 0.5 hrs followed by substrate addition and measured after 6 hrs by fluorimeter analysis.
For data set [13], the target named is T4, Interstitial collagenase. The data set is described as follows: Inhibition of human MMP1 using Dnp-Pro-Cha-Gly-Cys(ME)-His-Ala-Lys(Nma)-NH2 as substrate preincubated for 0.5 hrs followed by substrate addition and measured after 6 hrs by fluorimeter analysis.
Data set [14] in a line: Cmax in mouse plasma at 200 mg/kg, po by HPLC analysis. It is filed as ADME, organism-based. More on the design: dose 200 mg/kg, route po.
Data set [15] has as its target T1, Matrix metalloproteinase-9. The data set is described as follows: Inhibition of MMP-9 (unknown origin) using Ac-Pro-Leu-Gly-SCH(CH2 CH(CH3)2)CO-Leu-Gly-OCH2CH3 as substrate preincubated of 0.5 hrs followed by substrate addition and measured after 3 hrs by fluorescence analysis.
Data set [16] addresses T1, Matrix metalloproteinase-9. The data set is described as follows: Inhibition of MMP-9 (unknown origin) by fluorimetric assay.
Data set [17] deals with T2, 72 kDa type IV collagenase. In words: Inhibition of MMP-2 (unknown origin) by fluorimetric assay.
Data set [18] deals with T4, Interstitial collagenase. The data set is described as follows: Inhibition of MMP-1 (unknown origin) by fluorimetric assay.

T1 sequence (P14780 whole entry): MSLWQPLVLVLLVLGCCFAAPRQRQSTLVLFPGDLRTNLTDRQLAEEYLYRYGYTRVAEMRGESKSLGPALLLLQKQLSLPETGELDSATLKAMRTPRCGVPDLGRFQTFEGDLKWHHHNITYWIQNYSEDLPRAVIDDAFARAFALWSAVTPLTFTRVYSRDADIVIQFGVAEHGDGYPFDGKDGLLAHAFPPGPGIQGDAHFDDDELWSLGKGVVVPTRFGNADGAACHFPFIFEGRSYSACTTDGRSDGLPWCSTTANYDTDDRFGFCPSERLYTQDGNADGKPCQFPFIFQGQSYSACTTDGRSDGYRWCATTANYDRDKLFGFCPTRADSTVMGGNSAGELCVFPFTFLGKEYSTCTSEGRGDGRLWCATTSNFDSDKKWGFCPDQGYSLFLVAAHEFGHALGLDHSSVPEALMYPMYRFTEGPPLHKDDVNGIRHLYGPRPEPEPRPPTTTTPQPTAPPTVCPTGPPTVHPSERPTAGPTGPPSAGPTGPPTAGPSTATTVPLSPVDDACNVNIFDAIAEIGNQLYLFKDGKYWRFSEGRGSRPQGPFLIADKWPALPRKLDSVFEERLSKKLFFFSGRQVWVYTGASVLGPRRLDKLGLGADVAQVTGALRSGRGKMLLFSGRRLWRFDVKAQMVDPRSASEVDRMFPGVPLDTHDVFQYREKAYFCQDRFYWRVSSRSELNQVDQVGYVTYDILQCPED
Sequence of Disintegrin and metalloproteinase domain-containing protein 17 (P78536 whole entry, the tested form may be a part): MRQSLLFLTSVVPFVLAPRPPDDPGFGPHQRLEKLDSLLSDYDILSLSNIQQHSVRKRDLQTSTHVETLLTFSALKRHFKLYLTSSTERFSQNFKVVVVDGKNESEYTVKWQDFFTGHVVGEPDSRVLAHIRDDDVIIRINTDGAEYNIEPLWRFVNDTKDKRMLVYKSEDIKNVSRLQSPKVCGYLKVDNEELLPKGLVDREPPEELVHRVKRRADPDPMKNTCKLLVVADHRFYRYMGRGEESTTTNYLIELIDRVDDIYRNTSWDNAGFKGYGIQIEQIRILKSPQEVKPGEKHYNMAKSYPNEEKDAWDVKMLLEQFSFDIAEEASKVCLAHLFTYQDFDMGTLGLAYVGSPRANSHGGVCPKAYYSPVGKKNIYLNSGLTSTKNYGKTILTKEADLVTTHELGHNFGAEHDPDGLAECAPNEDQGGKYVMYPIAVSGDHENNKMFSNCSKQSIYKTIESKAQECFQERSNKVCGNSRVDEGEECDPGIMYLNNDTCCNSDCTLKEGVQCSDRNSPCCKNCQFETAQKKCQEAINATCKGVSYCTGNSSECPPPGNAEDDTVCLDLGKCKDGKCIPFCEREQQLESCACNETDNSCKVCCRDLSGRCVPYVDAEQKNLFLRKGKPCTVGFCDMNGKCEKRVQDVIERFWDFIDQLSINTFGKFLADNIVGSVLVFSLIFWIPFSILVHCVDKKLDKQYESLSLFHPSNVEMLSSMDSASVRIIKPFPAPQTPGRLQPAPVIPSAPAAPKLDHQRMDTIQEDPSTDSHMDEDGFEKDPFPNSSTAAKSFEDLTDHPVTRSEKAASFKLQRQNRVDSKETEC

For the compound `O=C(NO)C1(S(=O)(=O)c2ccc(-n3cc(-c4ccc(-c5cncnc5)cc4)nn3)cc2)CCOCC1`, the figures for the IC50 in data set [1] and in data set [2] were 0.8 nM and 0.5 nM, respectively.

For `CCCCOc1ccc(S(=O)(=O)C2(C(=O)NO)CCN(Cc3ccccc3)CC2)cc1`, the IC50 amounted to 3 nM in data set [3] and 16 nM against Collagenase 3 [4].

Consider `COc1ccc(S(=O)(=O)N(C)c2c(CN3CCOCC3)cc(C)cc2C(=O)NO)cc1`, for which the IC50 in [3] came out at 5 nM; in data set [5], 174 nM; against Collagenase 3 [4] it was 14 nM; against Interstitial collagenase [6] it was 608 nM.

As to `COc1ccc(S(=O)(=O)N2CN(Cc3ccccc3)C(=O)CC2C(=O)NO)cc1` (stereo not drawn), the 50% inhibitory concentration (IC50) in [3] was 6.8 nM; at Matrilysin, > 10000 nM; against Neutrophil collagenase, 6.4 nM; against Interstitial collagenase [6], 22.2 nM.

`CCCN(C(CSC)C(=O)NO)S(=O)(=O)c1ccc(OC)cc1` (stereo not drawn): the IC50 in data set [7] came out at 0.2 nM; in data set [8], 0.7 nM.

`CN(C)c1ccc(-c2cn(-c3ccc(S(=O)(=O)NC(Cc4ccccc4)C(=O)NO)cc3)nn2)cc1` (stereo not drawn): the IC50 in data set [3] came out at 1.06 nM; in data set [9], 0.32 nM.

With `O=C(O)[C@H]1[C@H](CN2C(=O)c3ccccc3C2=O)CC[C@@H]1SCc1ccc(-c2ccc(Cl)cc2)cc1`, the IC50 turned out to be 73 nM in [10]; 129 nM at Collagenase 3 [11]; 45 nM on Stromelysin-1; 13 nM in data set [12]; 50000 nM at Interstitial collagenase [13].

`Cc1ccc(C#Cc2ccc(S(=O)(=O)N[C@H](C(=O)O)C(C)C)s2)cc1` showed a Cmax in data set [14] of 284 µM. The half-inhibitory concentration (IC50) in [15] is 14 nM.

For `CC1(C)NC(=O)N(C[C@H](CS(=O)(=O)c2ccc(-c3ccc(OC(F)(F)F)cc3)cc2)N(O)C=O)C1=O`, the IC50 amounted to 0.34 nM in [16], 0.86 nM in data set [17] and 82 nM against Interstitial collagenase [18].

`O=CN(O)C(CS(=O)(=O)c1ccc(Oc2ccc(OC(F)(F)F)cc2)cc1)[C@@H](O)CO` (stereo partly drawn): the half-maximal inhibitory concentration (IC50) in [16] worked out at 0.092 nM; in [17], 0.36 nM.
